Read-outs that look alike come from different tables or passages of the source.
Biological target: T1, mouse CD1d (mCD1d) (Mus musculus, UniProt P11609)
T1 construct: gene Cd1d1
T1 sequence (P11609 22-305 limits assumed): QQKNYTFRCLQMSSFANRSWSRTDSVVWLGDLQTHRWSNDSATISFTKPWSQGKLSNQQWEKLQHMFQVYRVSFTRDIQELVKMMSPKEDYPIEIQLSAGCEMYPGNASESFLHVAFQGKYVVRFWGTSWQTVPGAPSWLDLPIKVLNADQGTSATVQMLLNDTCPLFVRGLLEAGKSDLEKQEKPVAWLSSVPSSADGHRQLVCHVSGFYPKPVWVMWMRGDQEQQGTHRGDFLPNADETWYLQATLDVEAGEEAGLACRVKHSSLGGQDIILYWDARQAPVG
T1 sequence (P01887 21-119 partner): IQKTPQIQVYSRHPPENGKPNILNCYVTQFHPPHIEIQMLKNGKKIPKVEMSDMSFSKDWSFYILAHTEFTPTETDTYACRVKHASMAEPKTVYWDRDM
Test: microscale thermophoresis
Type: binding

Structure (SMILES) | Kd (NT-647-labelled mCD1d 125 nM, PBS 25 mM, 0.05% Tyloxapol, up to 5% DMSO, 1:1 fit, labelled protein) | Kd
CCCCCCCC/C=C\CCCCCCCCCCCCCC(=O)N[C@@H](CO[C@@H]1O[C@H](CO)[C@@H](O[C@@H]2O[C@H](CO)[C@H](O)[C@H](O[C@]3(C(=O)O)C[C@H](O)[C@@H](NC(C)=O)[C@H]([C@H](O)[C@@H](CO)O[C@]4(C(=O)O)C[C@H](O)[C@@H](NC(C)=O)[C@H]([C@H](O)[C@H](O)CO)O4)O3)[C@H]2O)[C@H](O)[C@H]1O)[C@H](O)/C=C/CCCCCCCCCCCCC [C24:1 GD3] | 69.1 ± 1.5 µM | –
CCCCCCCC/C=C\CCCCCCCCCCCCCC(=O)N[C@@H](CO[C@@H]1O[C@H](CO)[C@@H](O[C@@H]2O[C@H](CO)[C@H](O)[C@H](O[C@]3(C(=O)O)C[C@H](O)[C@@H](NC(C)=O)[C@H]([C@H](O)[C@H](O)CO)O3)[C@H]2O)[C@H](O)[C@H]1O)[C@H](O)/C=C/CCCCCCCCCCCCC [C24:1 GM3] | – | 102 ± 2.3 µM
CCCCCCCC/C=C\CCCCCCCCCCCCCC(=O)N[C@@H](CO[C@@H]1O[C@H](CO)[C@@H](O)[C@H](O)[C@H]1O)[C@H](O)/C=C/CCCCCCCCCCCCC [C24:1 β-GlcCer] | – | 2540 µM

— paper PMC6420026, “TLR9-mediated dendritic cell activation uncovers mammalian ganglioside species with specific ceramide backbones that activate invariant natural killer T cells” (PLoS Biology, 2019)
